Test results from PMC10945555, “Improving Activity of New Arylurea Agents against Multidrug-Resistant and Biofilm-Producing Staphylococcus epidermidis” (ACS Medicinal Chemistry Letters, 2024).
≈ marks a conversion by molar mass, not a printed value. Like-named read-outs stand apart in the source and are kept apart here.

Test system: clinical Staphylococcus epidermidis strains
Test: Minimal bactericidal concentration (MBC), MBC/MIC
Type: cell-based
Conditions: Staphylococcus epidermidis
Protocol: 2.5 Evaluation of bacteriostatic/bactericidal properties […]
determining MBC (Minimal Bactericidal Concentration) values. The study was conducted in accordance with the guidelines of the Clinical and Laboratory Standards Institute (CLSI).13 The MBC value was assumed to be the concentration of the compound inhibiting the growth of strains in 99.9%. Then, the value of the MBC/MIC ratio was calculated to assess its bactericidal or bacteriostatic activity. […]

SMILES: O=C(Nc1cccc(Cl)c1)NC1CCN(CCC(Oc2ccc(C(F)(F)F)cc2)c2cccs2)CC1 (stereo not shown) [Compound 25]
- MBC (81 clinical strains (Table S5), read-out: Average of MBC): 29.2 µg/mL (≈ 54.2 µM)
- MBC (clinical strain 1 (Table S5), read-out: MBC): 25 µg/mL (≈ 46.5 µM)
- MBC (clinical strain 2 (Table S5), read-out: MBC): 25 µg/mL (≈ 46.5 µM)
- MBC (clinical strain 3 (Table S5), read-out: MBC): 12.5 µg/mL (≈ 23.2 µM)
- MBC (clinical strain 4 (Table S5), read-out: MBC): 25 µg/mL (≈ 46.5 µM)
- MBC (clinical strain 5 (Table S5), read-out: MBC): 50 µg/mL (≈ 92.9 µM)
- MBC (clinical strain 6 (Table S5), read-out: MBC): 25 µg/mL (≈ 46.5 µM)
- MBC (clinical strain 7 (Table S5), read-out: MBC): 25 µg/mL (≈ 46.5 µM)
- MBC (clinical strain 8 (Table S5), read-out: MBC): 12.5 µg/mL (≈ 23.2 µM)
- MBC (clinical strain 9 (Table S5), read-out: MBC): 50 µg/mL (≈ 92.9 µM)
- MBC (clinical strain 10 (Table S5), read-out: MBC): 50 µg/mL (≈ 92.9 µM)
- MBC (clinical strain 11 (Table S5), read-out: MBC): 25 µg/mL (≈ 46.5 µM)
- MBC (clinical strain 12 (Table S5), read-out: MBC): 25 µg/mL (≈ 46.5 µM)
- MBC (clinical strain 13 (Table S5), read-out: MBC): 25 µg/mL (≈ 46.5 µM)
- MBC (clinical strain 14 (Table S5), read-out: MBC): 25 µg/mL (≈ 46.5 µM)
- MBC (clinical strain 15 (Table S5), read-out: MBC): 50 µg/mL (≈ 92.9 µM)
- MBC (clinical strain 16 (Table S5), read-out: MBC): 25 µg/mL (≈ 46.5 µM)
- MBC (clinical strain 17 (Table S5), read-out: MBC): 1.6 µg/mL (≈ 2.97 µM)
- MBC (clinical strain 18 (Table S5), read-out: MBC): 50 µg/mL (≈ 92.9 µM)
- MBC (clinical strain 19 (Table S5), read-out: MBC): 12.5 µg/mL (≈ 23.2 µM)
- MBC (clinical strain 20 (Table S5), read-out: MBC): 25 µg/mL (≈ 46.5 µM)
- MBC (clinical strain 21 (Table S5), read-out: MBC): 25 µg/mL (≈ 46.5 µM)
- MBC (clinical strain 22 (Table S5), read-out: MBC): 12.5 µg/mL (≈ 23.2 µM)
- MBC (clinical strain 23 (Table S5), read-out: MBC): 25 µg/mL (≈ 46.5 µM)
- MBC (clinical strain 24 (Table S5), read-out: MBC): 25 µg/mL (≈ 46.5 µM)
- MBC (clinical strain 25 (Table S5), read-out: MBC): 12.5 µg/mL (≈ 23.2 µM)
- MBC (clinical strain 26 (Table S5), read-out: MBC): 50 µg/mL (≈ 92.9 µM)
- MBC (clinical strain 27 (Table S5), read-out: MBC): 50 µg/mL (≈ 92.9 µM)
- MBC (clinical strain 28 (Table S5), read-out: MBC): 12.5 µg/mL (≈ 23.2 µM)
- MBC (clinical strain 29 (Table S5), read-out: MBC): 6.25 µg/mL (≈ 11.6 µM)
- MBC (clinical strain 30 (Table S5), read-out: MBC): 12.5 µg/mL (≈ 23.2 µM)
- MBC (clinical strain 31 (Table S5), read-out: MBC): 25 µg/mL (≈ 46.5 µM)
- MBC (clinical strain 32 (Table S5), read-out: MBC): 25 µg/mL (≈ 46.5 µM)
- MBC (clinical strain 33 (Table S5), read-out: MBC): 25 µg/mL (≈ 46.5 µM)
- MBC (clinical strain 34 (Table S5), read-out: MBC): 25 µg/mL (≈ 46.5 µM)
- MBC (clinical strain 35 (Table S5), read-out: MBC): 25 µg/mL (≈ 46.5 µM)
- MBC (clinical strain 36 (Table S5), read-out: MBC): 25 µg/mL (≈ 46.5 µM)
- MBC (clinical strain 37 (Table S5), read-out: MBC): 25 µg/mL (≈ 46.5 µM)
- MBC (clinical strain 38 (Table S5), read-out: MBC): 25 µg/mL (≈ 46.5 µM)
- MBC (clinical strain 39 (Table S5), read-out: MBC): 12.5 µg/mL (≈ 23.2 µM)
- MBC (clinical strain 40 (Table S5), read-out: MBC): 12.5 µg/mL (≈ 23.2 µM)
- MBC (clinical strain 41 (Table S5), read-out: MBC): 25 µg/mL (≈ 46.5 µM)
- MBC (clinical strain 42 (Table S5), read-out: MBC): 12.5 µg/mL (≈ 23.2 µM)
- MBC (clinical strain 43 (Table S5), read-out: MBC): 25 µg/mL (≈ 46.5 µM)
- MBC (clinical strain 44 (Table S5), read-out: MBC): 25 µg/mL (≈ 46.5 µM)
- MBC (clinical strain 45 (Table S5), read-out: MBC): 25 µg/mL (≈ 46.5 µM)
- MBC (clinical strain 46 (Table S5), read-out: MBC): 12.5 µg/mL (≈ 23.2 µM)
- MBC (clinical strain 47 (Table S5), read-out: MBC): 25 µg/mL (≈ 46.5 µM)
- MBC (clinical strain 48 (Table S5), read-out: MBC): 25 µg/mL (≈ 46.5 µM)
- MBC (clinical strain 49 (Table S5), read-out: MBC): 1.6 µg/mL (≈ 2.97 µM)
- MBC (clinical strain 50 (Table S5), read-out: MBC): 50 µg/mL (≈ 92.9 µM)
- MBC (clinical strain 51 (Table S5), read-out: MBC): 50 µg/mL (≈ 92.9 µM)
- MBC (clinical strain 52 (Table S5), read-out: MBC): 50 µg/mL (≈ 92.9 µM)
- MBC (clinical strain 53 (Table S5), read-out: MBC): 50 µg/mL (≈ 92.9 µM)
- MBC (clinical strain 54 (Table S5), read-out: MBC): 12.5 µg/mL (≈ 23.2 µM)
- MBC (clinical strain 55 (Table S5), read-out: MBC): 50 µg/mL (≈ 92.9 µM)
- MBC (clinical strain 56 (Table S5), read-out: MBC): 25 µg/mL (≈ 46.5 µM)
- MBC (clinical strain 57 (Table S5), read-out: MBC): 50 µg/mL (≈ 92.9 µM)
- MBC (clinical strain 58 (Table S5), read-out: MBC): 12.5 µg/mL (≈ 23.2 µM)
- MBC (clinical strain 59 (Table S5), read-out: MBC): 50 µg/mL (≈ 92.9 µM)
- MBC (clinical strain 60 (Table S5), read-out: MBC): 50 µg/mL (≈ 92.9 µM)
- MBC (clinical strain 61 (Table S5), read-out: MBC): 25 µg/mL (≈ 46.5 µM)
- MBC (clinical strain 62 (Table S5), read-out: MBC): 25 µg/mL (≈ 46.5 µM)
- MBC (clinical strain 63 (Table S5), read-out: MBC): 25 µg/mL (≈ 46.5 µM)
- MBC (clinical strain 64 (Table S5), read-out: MBC): 50 µg/mL (≈ 92.9 µM)
- MBC (clinical strain 65 (Table S5), read-out: MBC): 50 µg/mL (≈ 92.9 µM)
- MBC (clinical strain 66 (Table S5), read-out: MBC): 25 µg/mL (≈ 46.5 µM)
- MBC (clinical strain 67 (Table S5), read-out: MBC): 50 µg/mL (≈ 92.9 µM)
- MBC (clinical strain 68 (Table S5), read-out: MBC): 50 µg/mL (≈ 92.9 µM)
- MBC (clinical strain 69 (Table S5), read-out: MBC): 25 µg/mL (≈ 46.5 µM)
- MBC (clinical strain 70 (Table S5), read-out: MBC): 50 µg/mL (≈ 92.9 µM)
- MBC (clinical strain 71 (Table S5), read-out: MBC): 25 µg/mL (≈ 46.5 µM)
- MBC (clinical strain 72 (Table S5), read-out: MBC): 50 µg/mL (≈ 92.9 µM)
- MBC (clinical strain 73 (Table S5), read-out: MBC): 6.25 µg/mL (≈ 11.6 µM)
- MBC (clinical strain 74 (Table S5), read-out: MBC): 50 µg/mL (≈ 92.9 µM)
- MBC (clinical strain 75 (Table S5), read-out: MBC): 50 µg/mL (≈ 92.9 µM)
- MBC (clinical strain 76 (Table S5), read-out: MBC): 25 µg/mL (≈ 46.5 µM)
- MBC (clinical strain 77 (Table S5), read-out: MBC): 50 µg/mL (≈ 92.9 µM)
- MBC (clinical strain 78 (Table S5), read-out: MBC): 25 µg/mL (≈ 46.5 µM)
- MBC (clinical strain 79 (Table S5), read-out: MBC): 6.25 µg/mL (≈ 11.6 µM)
- MBC (clinical strain 80 (Table S5), read-out: MBC): 50 µg/mL (≈ 92.9 µM)
- MBC (clinical strain 81 (Table S5), read-out: MBC): 3.12 µg/mL (≈ 5.81 µM)
